From ChEMBL document CHEMBL1201862, “PubChem BioAssay data set” (2004)
The source made the active and inactive calls.

Key:
[1] = target: T1, Caspase-3 (Homo sapiens, UniProt P42574); format: functional;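 further: Dose-response selectivity test against caspase-3 for candidate inhibitors of sentrin-specific proteases (SENPs)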
T1 sequence (P42574 whole entry): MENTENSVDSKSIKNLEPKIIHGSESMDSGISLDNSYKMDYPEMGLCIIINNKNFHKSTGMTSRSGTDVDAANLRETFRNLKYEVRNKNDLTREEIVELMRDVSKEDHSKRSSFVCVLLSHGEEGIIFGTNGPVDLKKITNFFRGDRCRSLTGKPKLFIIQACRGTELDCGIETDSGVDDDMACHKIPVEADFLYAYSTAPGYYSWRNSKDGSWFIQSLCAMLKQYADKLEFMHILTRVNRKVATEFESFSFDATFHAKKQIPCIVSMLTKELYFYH

[2] = target: T2, Sentrin-specific protease 8 (Homo sapiens, UniProt Q96LD8); format: functional;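 further: luminescence read-out of SENP8 inhibition, dose-response confirmation following an ultra-high-throughput screen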
T2 sequence (Q96LD8 whole entry): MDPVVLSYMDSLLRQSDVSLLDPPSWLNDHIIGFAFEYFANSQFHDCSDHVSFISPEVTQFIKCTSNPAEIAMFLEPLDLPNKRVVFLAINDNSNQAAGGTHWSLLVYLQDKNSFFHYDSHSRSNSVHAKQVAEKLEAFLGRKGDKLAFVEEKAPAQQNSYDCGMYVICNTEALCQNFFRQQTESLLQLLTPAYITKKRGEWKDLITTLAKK

[3] = target: T3, Tyrosyl-DNA phosphodiesterase 2 (Homo sapiens, UniProt O95551); test: human TDP2 enzyme inhibitors, dose response, biochemical, epi absorbance, IC50 (AID 743297)
T3 sequence (O95551 whole entry): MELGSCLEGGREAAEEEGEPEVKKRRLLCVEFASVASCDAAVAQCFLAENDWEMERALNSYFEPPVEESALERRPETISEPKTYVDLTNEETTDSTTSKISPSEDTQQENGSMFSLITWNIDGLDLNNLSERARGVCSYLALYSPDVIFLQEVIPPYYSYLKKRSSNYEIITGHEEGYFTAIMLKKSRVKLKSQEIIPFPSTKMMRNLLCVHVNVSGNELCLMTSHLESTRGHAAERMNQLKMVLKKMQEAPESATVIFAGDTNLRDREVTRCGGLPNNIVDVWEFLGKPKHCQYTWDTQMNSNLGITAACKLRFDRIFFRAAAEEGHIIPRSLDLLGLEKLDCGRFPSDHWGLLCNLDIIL

[4] = target: cGMP-dependent protein kinase 1 (Homo sapiens, UniProt Q13976); format: functional;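 further: value from a kinome panel screen with PRKG1 as the panel member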
[5] = target: RAC-gamma serine/threonine-protein kinase (Homo sapiens, UniProt Q9Y243); format: functional
[6] = target: Tyrosine-protein kinase Lck (Homo sapiens, UniProt P06239); format: functional;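 further: lck was assayed as one member of a kinase panel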
[7] = target: Aurora kinase A (Homo sapiens, UniProt O14965); format: functional;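 further: value from the Navigating the Kinome kinase panel profiling, panel entry STK6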
[8] = target: MAP kinase-activated protein kinase 2 (Homo sapiens, UniProt P49137); format: functional;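 further: measured as one member of a kinome-wide kinase panel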
[9] = target: Serine/threonine-protein kinase PAK 1 (Homo sapiens, UniProt Q13153); format: functional
[10] = target: Fibroblast growth factor receptor 1 (Homo sapiens, UniProt P11362); format: functional
[11] = target: Casein kinase I isoform alpha (Homo sapiens, UniProt P48729); format: functional
Chain of Casein kinase I isoform alpha (P48729 whole entry, canonical isoform): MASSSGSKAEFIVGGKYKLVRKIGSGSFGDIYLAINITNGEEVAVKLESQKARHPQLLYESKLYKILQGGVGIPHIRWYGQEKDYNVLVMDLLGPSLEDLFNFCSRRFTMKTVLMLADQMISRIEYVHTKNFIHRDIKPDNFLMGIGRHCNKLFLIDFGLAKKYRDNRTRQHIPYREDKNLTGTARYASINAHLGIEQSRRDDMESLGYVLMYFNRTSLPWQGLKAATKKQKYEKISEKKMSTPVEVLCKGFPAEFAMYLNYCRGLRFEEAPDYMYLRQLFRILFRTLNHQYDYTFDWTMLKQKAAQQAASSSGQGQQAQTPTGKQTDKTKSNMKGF

[12] = target: Tyrosine-protein kinase Lyn (Homo sapiens, UniProt P07948); format: functional;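 further: lyn as one member of a kinase panel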
[13] = target: Tyrosine-protein kinase ITK/TSK (Homo sapiens, UniProt Q08881); format: functional;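 further: affinity for ITK measured as one member of a broad kinase panel profiling binding across the kinome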
Chain of Tyrosine-protein kinase ITK/TSK (Q08881 whole entry): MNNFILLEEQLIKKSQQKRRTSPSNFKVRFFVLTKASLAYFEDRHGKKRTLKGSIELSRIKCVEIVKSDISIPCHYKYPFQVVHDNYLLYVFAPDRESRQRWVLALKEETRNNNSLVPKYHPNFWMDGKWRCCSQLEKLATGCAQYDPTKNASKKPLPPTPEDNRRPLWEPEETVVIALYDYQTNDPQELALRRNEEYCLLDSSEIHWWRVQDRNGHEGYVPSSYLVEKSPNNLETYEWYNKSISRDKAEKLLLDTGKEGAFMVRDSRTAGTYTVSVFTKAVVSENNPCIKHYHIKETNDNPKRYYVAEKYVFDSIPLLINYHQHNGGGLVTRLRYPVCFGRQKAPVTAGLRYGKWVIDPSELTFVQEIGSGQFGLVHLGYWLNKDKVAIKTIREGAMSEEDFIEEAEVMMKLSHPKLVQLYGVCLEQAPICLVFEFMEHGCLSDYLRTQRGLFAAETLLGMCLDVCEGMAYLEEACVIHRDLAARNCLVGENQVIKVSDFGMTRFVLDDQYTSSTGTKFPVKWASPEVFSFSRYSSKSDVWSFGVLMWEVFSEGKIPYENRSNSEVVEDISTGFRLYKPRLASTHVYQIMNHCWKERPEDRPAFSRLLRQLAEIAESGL

[14] = target: MAP/microtubule affinity-regulating kinase 3 (Homo sapiens, UniProt P27448); format: functional;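 further: MARK3 affinity measured as one member of a kinome panel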
Chain of MAP/microtubule affinity-regulating kinase 3 (P27448 whole entry): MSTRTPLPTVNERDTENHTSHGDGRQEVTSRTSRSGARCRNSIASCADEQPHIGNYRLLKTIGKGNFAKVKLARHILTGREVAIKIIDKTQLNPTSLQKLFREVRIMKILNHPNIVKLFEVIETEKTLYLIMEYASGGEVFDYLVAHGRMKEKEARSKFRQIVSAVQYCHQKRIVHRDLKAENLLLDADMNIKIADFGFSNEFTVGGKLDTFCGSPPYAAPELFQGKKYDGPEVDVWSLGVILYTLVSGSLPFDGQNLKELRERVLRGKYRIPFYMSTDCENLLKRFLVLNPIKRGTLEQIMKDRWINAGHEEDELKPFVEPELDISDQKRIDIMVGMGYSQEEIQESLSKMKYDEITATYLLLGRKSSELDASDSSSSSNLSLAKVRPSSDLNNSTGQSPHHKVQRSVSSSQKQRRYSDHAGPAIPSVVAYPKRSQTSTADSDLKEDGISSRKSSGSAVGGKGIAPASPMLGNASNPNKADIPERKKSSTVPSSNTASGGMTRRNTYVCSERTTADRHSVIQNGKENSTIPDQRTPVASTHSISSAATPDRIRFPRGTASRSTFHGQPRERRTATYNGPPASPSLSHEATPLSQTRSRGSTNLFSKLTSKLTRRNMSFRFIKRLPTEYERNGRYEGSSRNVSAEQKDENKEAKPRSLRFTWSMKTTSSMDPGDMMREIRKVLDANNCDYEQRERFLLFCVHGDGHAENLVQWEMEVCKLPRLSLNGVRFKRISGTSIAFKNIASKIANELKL

[15] = target: Insulin receptor (Homo sapiens, UniProt P06213); format: functional;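 further: insulin receptor kinase tested as one member of a kinome-wide kinase panel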
[16] = target: Proto-oncogene tyrosine-protein kinase Src (Homo sapiens, UniProt P12931); format: functional;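 further: SRC entry within a kinome-wide kinase profiling panel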
[17] = target: Glycogen synthase kinase-3 alpha (Homo sapiens, UniProt P49840); format: functional;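 further: GSK3A result taken from a broad kinome-wide kinase panel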
[18] = target: Casein kinase I isoform delta (Homo sapiens, UniProt P48730); format: functional;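 further: measured as one member (CSNK1D) of a kinome panel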
[19] = target: Calcium/calmodulin-dependent protein kinase type II subunit beta (Homo sapiens, UniProt Q13554); format: functional
[20] = target: Ephrin type-A receptor 2 (Homo sapiens, UniProt P29317); format: functional;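 further: EPHA2 tested as one member of a kinome-wide kinase panel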
[21] = target: Insulin-like growth factor 1 receptor (Homo sapiens, UniProt P08069); test: Navigating the Kinome. Panel member name: IGF1R; format: functional
Chain of Insulin-like growth factor 1 receptor (P08069 31-736 limits assumed): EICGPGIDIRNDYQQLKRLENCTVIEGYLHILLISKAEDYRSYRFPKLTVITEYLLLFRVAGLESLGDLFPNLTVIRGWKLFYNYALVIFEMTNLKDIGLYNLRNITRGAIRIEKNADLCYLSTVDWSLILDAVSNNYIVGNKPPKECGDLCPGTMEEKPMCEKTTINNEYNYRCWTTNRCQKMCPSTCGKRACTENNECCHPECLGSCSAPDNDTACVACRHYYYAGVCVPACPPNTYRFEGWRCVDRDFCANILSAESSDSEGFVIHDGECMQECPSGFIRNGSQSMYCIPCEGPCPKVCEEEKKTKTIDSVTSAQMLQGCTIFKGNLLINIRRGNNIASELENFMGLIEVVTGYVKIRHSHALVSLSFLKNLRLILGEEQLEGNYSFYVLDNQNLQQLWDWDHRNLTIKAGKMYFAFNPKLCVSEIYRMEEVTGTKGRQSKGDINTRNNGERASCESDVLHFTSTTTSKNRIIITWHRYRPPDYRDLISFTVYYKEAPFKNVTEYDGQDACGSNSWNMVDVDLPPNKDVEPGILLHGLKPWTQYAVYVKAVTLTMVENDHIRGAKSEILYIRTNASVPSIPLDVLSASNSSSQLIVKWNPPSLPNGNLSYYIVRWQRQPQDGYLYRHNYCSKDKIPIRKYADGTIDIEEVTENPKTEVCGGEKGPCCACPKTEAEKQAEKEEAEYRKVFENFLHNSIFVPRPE
Chain of Insulin-like growth factor 1 receptor (P08069 741-1367 limits assumed): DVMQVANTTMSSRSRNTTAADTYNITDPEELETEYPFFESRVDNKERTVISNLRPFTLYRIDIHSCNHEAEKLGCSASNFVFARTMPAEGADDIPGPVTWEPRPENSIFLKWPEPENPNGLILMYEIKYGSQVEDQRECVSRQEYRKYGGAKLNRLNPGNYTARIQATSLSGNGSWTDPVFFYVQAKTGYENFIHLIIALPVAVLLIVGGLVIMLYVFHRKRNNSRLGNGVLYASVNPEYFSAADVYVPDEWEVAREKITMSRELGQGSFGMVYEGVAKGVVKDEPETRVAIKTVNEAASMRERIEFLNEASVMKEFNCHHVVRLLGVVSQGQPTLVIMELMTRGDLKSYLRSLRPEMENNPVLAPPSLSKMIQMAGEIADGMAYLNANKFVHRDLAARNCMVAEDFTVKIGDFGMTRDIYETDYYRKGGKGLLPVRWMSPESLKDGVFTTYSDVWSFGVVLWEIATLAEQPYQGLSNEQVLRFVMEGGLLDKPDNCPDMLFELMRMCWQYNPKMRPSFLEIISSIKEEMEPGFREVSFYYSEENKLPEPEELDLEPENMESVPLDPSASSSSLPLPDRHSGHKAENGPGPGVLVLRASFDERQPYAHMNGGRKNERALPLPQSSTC

[22] = target: Homeodomain-interacting protein kinase 4 (Homo sapiens, UniProt Q8NE63); format: functional
[23] = target: Serine/threonine-protein kinase pim-2 (Homo sapiens, UniProt Q9P1W9); format: functional;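 further: value comes from a broad kinase panel profiling study in which PIM2 was one of the panel members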
[24] = target: 3-phosphoinositide-dependent protein kinase 1 (Homo sapiens, UniProt O15530); format: functional;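 further: value comes from the Navigating the Kinome panel, PDPK1 member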
[25] = target: Vascular endothelial growth factor receptor 1 (Homo sapiens, UniProt P17948); format: functional;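 further: measured within a kinome-wide profiling panel, FLT1 as the panel member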
Chain of Vascular endothelial growth factor receptor 1 (P17948 whole entry): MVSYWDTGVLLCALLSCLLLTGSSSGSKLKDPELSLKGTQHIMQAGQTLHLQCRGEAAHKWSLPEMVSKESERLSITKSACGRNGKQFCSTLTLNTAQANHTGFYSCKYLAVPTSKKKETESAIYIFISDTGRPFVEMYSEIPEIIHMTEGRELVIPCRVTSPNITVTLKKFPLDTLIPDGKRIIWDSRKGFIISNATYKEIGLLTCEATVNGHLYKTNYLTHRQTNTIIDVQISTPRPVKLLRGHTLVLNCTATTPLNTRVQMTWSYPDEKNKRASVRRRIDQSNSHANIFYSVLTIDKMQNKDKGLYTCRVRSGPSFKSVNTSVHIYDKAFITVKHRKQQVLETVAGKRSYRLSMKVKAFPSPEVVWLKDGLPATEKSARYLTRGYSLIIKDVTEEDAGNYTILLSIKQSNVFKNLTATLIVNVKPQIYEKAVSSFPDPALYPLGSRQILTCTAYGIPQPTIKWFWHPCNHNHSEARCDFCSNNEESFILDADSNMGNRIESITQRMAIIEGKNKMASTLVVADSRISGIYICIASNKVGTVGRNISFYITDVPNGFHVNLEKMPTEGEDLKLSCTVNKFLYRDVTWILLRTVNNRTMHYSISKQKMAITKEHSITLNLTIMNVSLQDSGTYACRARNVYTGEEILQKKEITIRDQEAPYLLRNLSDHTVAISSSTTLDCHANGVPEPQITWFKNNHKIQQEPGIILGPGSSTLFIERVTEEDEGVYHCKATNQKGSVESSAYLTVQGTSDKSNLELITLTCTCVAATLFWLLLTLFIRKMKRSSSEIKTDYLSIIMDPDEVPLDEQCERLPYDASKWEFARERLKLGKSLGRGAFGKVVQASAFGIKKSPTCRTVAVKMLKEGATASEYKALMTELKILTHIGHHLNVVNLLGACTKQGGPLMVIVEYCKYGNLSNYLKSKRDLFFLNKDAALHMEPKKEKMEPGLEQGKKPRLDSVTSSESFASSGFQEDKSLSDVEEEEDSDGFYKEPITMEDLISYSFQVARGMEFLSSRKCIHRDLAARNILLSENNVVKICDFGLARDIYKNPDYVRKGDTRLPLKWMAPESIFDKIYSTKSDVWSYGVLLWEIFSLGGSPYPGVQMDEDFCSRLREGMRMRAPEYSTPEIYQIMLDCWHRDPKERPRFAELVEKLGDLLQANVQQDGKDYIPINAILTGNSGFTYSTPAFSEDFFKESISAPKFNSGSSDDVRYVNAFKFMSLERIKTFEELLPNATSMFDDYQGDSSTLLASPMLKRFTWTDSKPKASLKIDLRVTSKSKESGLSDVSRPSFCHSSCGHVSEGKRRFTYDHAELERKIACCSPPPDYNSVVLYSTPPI

[26] = target: Receptor tyrosine-protein kinase erbB-4 (Homo sapiens, UniProt Q15303); format: functional;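 further: ERBB4 member of a kinome-wide kinase profiling panel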
[27] = target: cAMP-dependent protein kinase catalytic subunit alpha (Homo sapiens, UniProt P17612); format: functional
[28] = target: Mitogen-activated protein kinase 12 (Homo sapiens, UniProt P53778); format: functional;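 further: measured as one member of a kinome-wide kinase profiling panel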
Chain of Mitogen-activated protein kinase 12 (P53778 whole entry): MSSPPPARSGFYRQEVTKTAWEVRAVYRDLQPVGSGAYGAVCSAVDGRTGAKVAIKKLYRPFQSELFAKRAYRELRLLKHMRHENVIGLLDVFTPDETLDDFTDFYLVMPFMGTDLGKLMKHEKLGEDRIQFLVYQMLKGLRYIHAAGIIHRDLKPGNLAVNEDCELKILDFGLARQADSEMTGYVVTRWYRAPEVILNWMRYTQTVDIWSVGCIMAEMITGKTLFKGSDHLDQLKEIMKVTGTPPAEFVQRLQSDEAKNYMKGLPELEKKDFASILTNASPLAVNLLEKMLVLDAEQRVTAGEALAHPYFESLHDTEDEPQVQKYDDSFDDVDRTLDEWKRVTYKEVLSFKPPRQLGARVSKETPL

[29] = target: Dual specificity tyrosine-phosphorylation-regulated kinase 1A (Homo sapiens, UniProt Q13627); format: functional;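 further: measured against DYRK1A as one member of a broad kinome profiling panel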
[30] = target: 5-hydroxytryptamine receptor 5A (Homo sapiens, UniProt P47898); test: Counterscreen for agonists of OPRM1-OPRD1 heterodimerization: luminescence-based cell-based high throughput dose response assay to identify agonists of 5-hydroxytryptamine (serotonin) 5A receptor (HTR5A). [Related pubchem assays (depositor defined):AID504326, AID504355, AID504692, AID504904, AID504905]; format: functional
[31] = MDA-MB-231 cell growth inhibition, dose response, cytotoxicity control for RAD54 inhibitor project, CellTiter-Glo luminescence, cherry-pick (AID 651692); format: functional, cell-based
[32] = inhibitors of PGC1a acetylation in cells, dose response, cell-based, cherry-picked samples (AID 720514); format: functional;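 further: potency may reflect raised or lowered acetylation signal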
[33] = target: Protein disulfide-isomerase A6 (Homo sapiens, UniProt Q15084); test: inhibitors of ERp5-mediated insulin aggregation, dose response, biochemical, turbidity, absorbance 650 nm, cherry-picked samples (AID 720566)
[34] = A549 cell cytotoxicity, dose response, cytotoxicity control, plate reader, cherry-pick, antagonist series (AID 743412); format: functional, cell-based

## CC(=O)c1ccc(NC2=C(N3CCOCC3)C(=O)c3ccccc3C2=O)cc1
[1]
  IC50: 30 µM (active)
[2]
  IC50: 18.8 µM (active)
[3]
  IC50: > 128 µM (inactive)

## COc1cc2ncn(-c3cc(OCc4ccccc4C(F)(F)F)c(C(N)=O)s3)c2cc1OC [GW843682X]
[4]
  Ki: 0.316 µM (active)
[5]
  Ki: > 10 µM (inactive)
[6]
  Ki: 2 µM (active)
[7]
  Ki: > 3.98 µM (inactive)
[8]
  Ki: > 7.94 µM (inactive)
[9]
  Ki: > 10 µM (inactive)
[10]
  Ki: 3.98 µM (active)
[11]
  Ki: > 6.31 µM (inactive)
[12]
  Ki: > 1.58 µM (inactive)
[13]
  Ki: 1 µM (active)
[14]
  Ki: > 6.31 µM (inactive)
[15]
  Ki: > 5.01 µM (inactive)
[16]
  Ki: 5.01 µM (active)
[17]
  Ki: > 7.94 µM (inactive)
[18]
  Ki: > 7.94 µM (inactive)
[19]
  Ki: > 7.94 µM (inactive)
[20]
  Ki: > 3.16 µM (inactive)
[21]
  Ki: > 1 µM (inactive)
[22]
  Ki: > 7.94 µM (inactive)
[23]
  Ki: > 1.58 µM (inactive)
[24]
  Ki: > 3.98 µM (inactive)
[25]
  Ki: 0.126 µM (active)
[26]
  Ki: > 3.98 µM (inactive)
[27]
  Ki: > 7.94 µM (inactive)
[28]
  Ki: > 6.31 µM (inactive)
[29]
  Ki: 5.01 µM (active)

## CCCc1nc2c(=O)n(C)c(=O)nc-2n(C)n1
[30]
  EC50: > 92.5 µM (inactive)
[31]
  AC50: 2.71 µM (active)
[32]
  AC50: 2.95 µM (active)
[33]
  AC50: 0.513 µM (active)
[34]
  AC50: 6.05 µM (active)
[3]
  IC50: 0.161 µM (active)
